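Growth conditions: 96-well plates. Treatment: test compound, 48 hours, 5 concentrations. Analysis: linear interpolation between bracketing concentrations; unreached endpoints set to highest concentration. At the TGI there is no net growth.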
Legend:
Experiment in all cases: DTP human tumour cell line panel, 48 h
HCT-116 colon = tested on: HCT-116 colon
786-0 renal = tested on: 786-0 renal
MOLT-4 leukemia = tested on: MOLT-4 leukemia
CAKI-1 renal = tested on: CAKI-1 renal
DU-145 prostate = tested on: DU-145 prostate
NCI-H226 lung = tested on: NCI-H226 lung

In the case of `COc1ccc(OC)c(CNc2ccc(O)c(C(=O)NCCc3ccc(F)cc3)c2)c1`, the TGI (HCT-116 colon) is reported as 27.1 µM, the TGI (786-0 renal) is reported as 68.4 µM and the TGI (MOLT-4 leukemia) is reported as 21.5 µM. The TGI (CAKI-1 renal) was 87.9 µM and the TGI (DU-145 prostate) was 34.5 µM.

For `Cc1cc(S(=O)(=O)O)ccc1N=Nc1ccc(N=Nc2c(O)ccc3ccccc23)c(C)c1`, the TGI (HCT-116 colon) was over 100 µM, the TGI (786-0 renal) was 61.3 µM and the TGI (NCI-H226 lung) was over 100 µM. The TGI (MOLT-4 leukemia) was over 100 µM, the TGI (CAKI-1 renal) was over 100 µM and the TGI (DU-145 prostate) was over 100 µM.

Compound `CC(=O)c1ccc2c(c1)oc(=O)n2CCN(C)C` has a TGI (HCT-116 colon) of over 100 µM, a TGI (786-0 renal) of over 100 µM and a TGI (NCI-H226 lung) of over 100 µM. It also gave a TGI (MOLT-4 leukemia) of over 100 µM and a TGI (CAKI-1 renal) of over 100 µM.

`N#CC1N(C(=O)c2ccc(F)cc2)c2ccccc2N1C(=O)c1ccc(F)cc1` showed a TGI (HCT-116 colon) of over 100 µM, a TGI (786-0 renal) of over 100 µM and a TGI (NCI-H226 lung) of over 100 µM. The TGI (MOLT-4 leukemia) was 82.8 µM, the TGI (CAKI-1 renal) was over 100 µM and the TGI (DU-145 prostate) was over 100 µM.

`Cc1cc(NC2=NCCO2)c2c(c1C)CCCC2` showed a TGI (HCT-116 colon) of over 100 µM, a TGI (786-0 renal) of 43 µM and a TGI (NCI-H226 lung) of 12.4 µM. For the same compound, the TGI (MOLT-4 leukemia) was 95.3 µM and the TGI (DU-145 prostate) was over 100 µM.

For `c1ccc(C(=NNc2nc3ccccc3[nH]2)c2ccccn2)nc1`, the TGI (HCT-116 colon) was 10.2 µM, the TGI (786-0 renal) was over 100 µM and the TGI (NCI-H226 lung) was 0.448 µM. It also gave a TGI (MOLT-4 leukemia) of 0.062 µM, a TGI (CAKI-1 renal) of 2.07 µM and a TGI (DU-145 prostate) of over 100 µM.

With `C1OCN2c3nonc3N3COCN4c5nonc5N1C2C43` (stereo not drawn) the TGI (HCT-116 colon) was over 100 µM, the TGI (786-0 renal) was over 100 µM and the TGI (NCI-H226 lung) was over 100 µM. The TGI (MOLT-4 leukemia) was over 100 µM, the TGI (CAKI-1 renal) was over 100 µM and the TGI (DU-145 prostate) was over 100 µM.

For `Cc1ccc(S(=O)(=Nc2ccccc2)C(C(C)C)C(C)(C)Cl)cc1` (stereo not drawn), the TGI (HCT-116 colon) was over 50 µM, the TGI (786-0 renal) was over 50 µM and the TGI (NCI-H226 lung) was 45.9 µM. It also gave a TGI (MOLT-4 leukemia) of 32.3 µM, a TGI (CAKI-1 renal) of over 50 µM and a TGI (DU-145 prostate) of over 50 µM.

In the case of `CC(C)(C)OC(=O)NC(CCCCNC(=O)OCc1ccccc1)C(=O)NC(CCCCNC(=O)OCc1ccccc1)C(=O)ON1C(=O)CCC1=O` (stereo not drawn), the TGI (HCT-116 colon) is reported as over 100 µM, the TGI (786-0 renal) is reported as over 100 µM and the TGI (NCI-H226 lung) is reported as over 100 µM. It also gave a TGI (MOLT-4 leukemia) of over 100 µM.

For `Cc1cc2nc3n(c2cc1C)C(c1c(F)cccc1F)SC3` (stereo not drawn), the TGI (HCT-116 colon) was 28.1 µM, the TGI (786-0 renal) was 43.4 µM and the TGI (NCI-H226 lung) was 23.8 µM. For the same compound, the TGI (MOLT-4 leukemia) was 47 µM and the TGI (CAKI-1 renal) was 60.3 µM.

With `CCOC(=O)N(CC)c1c(C(F)(F)F)cc(-c2ccccc2)[nH]c1=O` the TGI (HCT-116 colon) was over 100 µM, the TGI (786-0 renal) was over 100 µM and the TGI (NCI-H226 lung) was over 100 µM. For the same compound, the TGI (MOLT-4 leukemia) was 70.1 µM, the TGI (CAKI-1 renal) was over 100 µM and the TGI (DU-145 prostate) was over 100 µM.

For `CC(O)(c1ccccc1)c1nccc2ccccc12` (stereo not drawn), the TGI (HCT-116 colon) was over 100 µM, the TGI (786-0 renal) was over 100 µM and the TGI (NCI-H226 lung) was over 100 µM. It also gave a TGI (MOLT-4 leukemia) of over 100 µM, a TGI (CAKI-1 renal) of over 100 µM and a TGI (DU-145 prostate) of over 100 µM.

Work on `CC(=O)Oc1ccc(OC(Oc2ccccc2)c2ccccc2)cc1` (stereo not drawn) yielded a TGI (HCT-116 colon) of 59 µM, a TGI (786-0 renal) of 57.8 µM and a TGI (NCI-H226 lung) of 69.7 µM. It also gave a TGI (MOLT-4 leukemia) of over 100 µM, a TGI (CAKI-1 renal) of 55.7 µM and a TGI (DU-145 prostate) of over 100 µM.

`CCCCCC(/C=C/[C@@H]1CC(=O)C[C@H]1O[Si](C)(C)C(C)(C)C)OCOCCOC` (stereo partly drawn) gave a TGI (HCT-116 colon) of 13.5 µM, a TGI (786-0 renal) of 14.3 µM and a TGI (NCI-H226 lung) of 18.8 µM. The TGI (MOLT-4 leukemia) was 4.97 µM, the TGI (CAKI-1 renal) was 7.87 µM and the TGI (DU-145 prostate) was 32.8 µM.

`Cc1ccc(O)c(Cc2nc3ccccc3nc2-c2cccc(Br)c2)c1` gave a TGI (HCT-116 colon) of over 100 µM, a TGI (786-0 renal) of over 100 µM and a TGI (NCI-H226 lung) of over 100 µM. It also gave a TGI (MOLT-4 leukemia) of 84.7 µM, a TGI (CAKI-1 renal) of over 100 µM and a TGI (DU-145 prostate) of over 100 µM.

Compound `O=C(NN=C1CCCCC1)Nc1ccccc1Cl` has a TGI (HCT-116 colon) of over 100 µM, a TGI (786-0 renal) of over 100 µM and a TGI (NCI-H226 lung) of over 100 µM. It also gave a TGI (MOLT-4 leukemia) of over 100 µM, a TGI (CAKI-1 renal) of over 100 µM and a TGI (DU-145 prostate) of over 100 µM.

Work on `CCCCNC(=S)/N=C/c1c(O)c2ccccc2oc1=O` yielded a TGI (HCT-116 colon) of over 100 µM, a TGI (786-0 renal) of over 100 µM and a TGI (NCI-H226 lung) of over 100 µM. It also gave a TGI (MOLT-4 leukemia) of over 100 µM, a TGI (CAKI-1 renal) of over 100 µM and a TGI (DU-145 prostate) of over 100 µM.

`O=c1c2c([nH]c3cc4c(cc13)OCO4)-c1ccccc1CCC2` gave a TGI (HCT-116 colon) of over 50 µM, a TGI (786-0 renal) of over 50 µM and a TGI (NCI-H226 lung) of over 50 µM. For the same compound, the TGI (MOLT-4 leukemia) was over 50 µM, the TGI (CAKI-1 renal) was over 50 µM and the TGI (DU-145 prostate) was over 50 µM.

`FC1CCN(C2(c3cccs3)CCCCC2)CC1` gave a TGI (HCT-116 colon) of over 100 µM, a TGI (786-0 renal) of over 100 µM and a TGI (NCI-H226 lung) of over 100 µM. It also gave a TGI (MOLT-4 leukemia) of over 100 µM, a TGI (CAKI-1 renal) of over 100 µM and a TGI (DU-145 prostate) of over 100 µM.

`C=CCN1CC2CN=NC2(C#N)C1` (stereo not drawn) showed a TGI (HCT-116 colon) of over 100 µM, a TGI (786-0 renal) of over 100 µM and a TGI (NCI-H226 lung) of over 100 µM. For the same compound, the TGI (MOLT-4 leukemia) was over 100 µM, the TGI (CAKI-1 renal) was over 100 µM and the TGI (DU-145 prostate) was over 100 µM.

In the case of `COc1cc2c3c(cc(Cl)nc3c1OC)C(O)(CC(C)=O)C(=O)N2` (stereo not drawn), the TGI (HCT-116 colon) is reported as 31.3 µM, the TGI (786-0 renal) is reported as 30.9 µM and the TGI (NCI-H226 lung) is reported as over 57.3 µM. The TGI (MOLT-4 leukemia) was over 34.5 µM, the TGI (CAKI-1 renal) was 37.7 µM and the TGI (DU-145 prostate) was over 53.6 µM.

Work on `CC1NOC(NS(=O)(=O)c2ccc(N=Nc3c(O)c(C(=O)O)cc4ccccc34)cc2)C1C` (stereo not drawn) yielded a TGI (HCT-116 colon) of over 100 µM, a TGI (786-0 renal) of over 100 µM and a TGI (NCI-H226 lung) of over 100 µM. The TGI (MOLT-4 leukemia) was over 100 µM and the TGI (CAKI-1 renal) was over 100 µM.

Work on `COC(=O)C[C@H](COCc1ccccc1)NC(=O)C[C@H](COCc1ccccc1)NC(=O)C[C@H](COCc1ccccc1)NC(=O)OC(C)(C)C` yielded a TGI (HCT-116 colon) of 67 µM, a TGI (786-0 renal) of 72.9 µM and a TGI (NCI-H226 lung) of over 100 µM. It also gave a TGI (MOLT-4 leukemia) of over 100 µM, a TGI (CAKI-1 renal) of over 100 µM and a TGI (DU-145 prostate) of over 100 µM.

With `CCOC(=O)/C=C(/C(=O)OCC)n1c(=O)c(C)cn(C2CC(N=[N+]=[N-])C(CO)O2)c1=O` (stereo not drawn) the TGI (HCT-116 colon) was over 100 µM, the TGI (786-0 renal) was 72 µM and the TGI (NCI-H226 lung) was over 100 µM. The TGI (MOLT-4 leukemia) was 25.6 µM, the TGI (CAKI-1 renal) was 83.9 µM and the TGI (DU-145 prostate) was over 100 µM.

`CC1(C)Oc2ccc(Cl)cc2C12CC2` gave a TGI (HCT-116 colon) of 29 µM, a TGI (786-0 renal) of 31.3 µM and a TGI (NCI-H226 lung) of 32.2 µM. For the same compound, the TGI (MOLT-4 leukemia) was 44.1 µM, the TGI (CAKI-1 renal) was 31.2 µM and the TGI (DU-145 prostate) was 29.5 µM.

In the case of `O=C(CCc1cc(O)cc(O)c1)NCCc1ccc(O)c(O)c1`, the TGI (HCT-116 colon) is reported as over 100 µM, the TGI (786-0 renal) is reported as over 100 µM and the TGI (NCI-H226 lung) is reported as over 100 µM. For the same compound, the TGI (MOLT-4 leukemia) was over 100 µM, the TGI (CAKI-1 renal) was over 100 µM and the TGI (DU-145 prostate) was over 100 µM.

`Oc1[nH]c2ccccc2c1N=NC(=S)N1CCCCCC1` was tested, and the TGI (HCT-116 colon) was 1.9 µM, the TGI (786-0 renal) was 2.63 µM and the TGI (NCI-H226 lung) was 4.45 µM. It also gave a TGI (MOLT-4 leukemia) of 3.1 µM, a TGI (CAKI-1 renal) of 4.62 µM and a TGI (DU-145 prostate) of 10.5 µM.

`CC[C@@]1(O)C(=O)OCc2c1cc1n(c2=O)Cc2c-1nc1ccccc1c2/C=N\NC(=O)C(N)CS` (stereo partly drawn) showed a TGI (HCT-116 colon) of over 100 µM, a TGI (786-0 renal) of over 100 µM and a TGI (NCI-H226 lung) of 34.1 µM. It also gave a TGI (MOLT-4 leukemia) of 2.07 µM, a TGI (CAKI-1 renal) of over 91.3 µM and a TGI (DU-145 prostate) of 6.76 µM.

For `CCC(=N\NC(N)=S)/C(C)=N/O`, the TGI (HCT-116 colon) was over 100 µM, the TGI (786-0 renal) was over 100 µM and the TGI (NCI-H226 lung) was over 100 µM. The TGI (CAKI-1 renal) was over 100 µM and the TGI (DU-145 prostate) was over 100 µM.

For `O=[N+]([O-])c1cccc2nc3ccccc3c(NCCC[N+]3([O-])CCCCC3)c12`, the TGI (HCT-116 colon) was 1.04 µM, the TGI (786-0 renal) was 3.34 µM and the TGI (NCI-H226 lung) was 1.54 µM. For the same compound, the TGI (MOLT-4 leukemia) was over 100 µM, the TGI (CAKI-1 renal) was over 100 µM and the TGI (DU-145 prostate) was 1.9 µM.

`O=C1CCC2=C(CCC2)N1CCc1ccc2c(c1)OCO2` showed a TGI (HCT-116 colon) of over 100 µM, a TGI (786-0 renal) of over 100 µM and a TGI (NCI-H226 lung) of over 100 µM. It also gave a TGI (MOLT-4 leukemia) of over 100 µM, a TGI (CAKI-1 renal) of over 100 µM and a TGI (DU-145 prostate) of over 100 µM.
